Reference: the NIST ThermoML archive (doi:10.1021/je400184t)

Assay: xn = mol fraction of the nth substance listed
Details: 101 kPa, Liquid, Vibrating tube method

CN(CCO)CCO [N-methyldiethanolamine] + c1ccncc1
mass density [kg/m3]
Details | 288.15 K | 298.15 K | 353.15 K
x2 = 0 | 1046.36 | 1036.81 | 994.015
x2 = 0.01699 | – | – | 992.733
x2 = 0.04 | – | 1034.22 | –
x2 = 0.07502 | 1041.45 | – | 988.525
x2 = 0.1 | – | 1030.39 | –
x2 = 0.1844 | 1034.44 | – | 980.64
x2 = 0.2183 | – | 1023.03 | –
x2 = 0.3178 | 1025.81 | – | 971.05
x2 = 0.33 | – | 1016.1 | –
x2 = 0.4447 | 1018 | – | 961.905
x2 = 0.5265 | – | 1004.45 | –
x2 = 0.5708 | 1010.68 | – | 952.805
x2 = 0.6 | – | 1000.15 | –
x2 = 0.6945 | 1003.92 | – | 943.917
x2 = 0.7687 | – | 990.603 | –
x2 = 0.8095 | 997.843 | – | 935.616
x2 = 0.8886 | 993.774 | – | 930.006
x2 = 0.9059 | – | 983.032 | –
x2 = 0.9582 | – | 980.414 | –
x2 = 0.9597 | 990.221 | – | 924.867

NCCO [2-aminoethan-1-ol] + c1ccncc1
mass density [kg/m3]
Details | 288.15 K | 298.15 K | 353.15 K
x2 = 0 | 1019.87 | 1012.12 | 968.332
x2 = 0.01329 | – | 1011.37 | –
x2 = 0.02208 | 1018.83 | – | 966.667
x2 = 0.03932 | 1018.01 | 1010.09 | 965.353
x2 = 0.06973 | 1016.73 | 1008.71 | 963.408
x2 = 0.1369 | 1014.03 | 1005.81 | 959.323
x2 = 0.2147 | 1011.06 | 1002.59 | 954.908
x2 = 0.3455 | 1006.12 | 997.334 | 947.883
x2 = 0.4414 | 1002.7 | 993.687 | 943.004
x2 = 0.5819 | 998.105 | 988.794 | 936.439
x2 = 0.6767 | 995.328 | 985.804 | 932.426
x2 = 0.79 | 992.252 | 982.566 | 928.035
x2 = 0.878 | 990.097 | 980.237 | 924.973
x2 = 0.96 | 988.258 | – | 922.401
x2 = 0.9817 | – | 977.805 | –

Cc1ccccc1 [toluene] + CCCCCCC
298.15 K
Details | mass density [kg/m3]
x2 = 0 | 862.222
x2 = 0.00177 | 861.767
x2 = 0.01118 | 859.353
x2 = 0.0267 | 855.387
x2 = 0.05849 | 847.515
x2 = 0.1297 | 830.567
x2 = 0.2059 | 813.369
x2 = 0.2752 | 798.596
x2 = 0.3604 | 781.402
x2 = 0.4494 | 764.554
x2 = 0.4718 | 760.485
x2 = 0.6659 | 727.559
x2 = 0.8166 | 704.661
x2 = 0.9094 | 691.588
x2 = 0.9624 | 684.471
x2 = 0.9968 | 679.955
